{"source": "paper PMC11592477", "about": "“Bioengineering the Human Intestinal Mucosa and the Importance of Stromal Support for Pharmacological Evaluation In Vitro” (Cells, 2024)", "molecules": {"B1": {"name": "keratinocyte growth factor (protein, UniProt P21781 32-194, looked up)", "Fibroblast growth factor 7": "CNDMTPEQMATNVNCSSPERHTRSYDYMEGGDIRVRRLFCRTQWYLRIDKRGKVKGTQEMKNNYNIMEIRTVAVGIVAIKGVESEFYLAMNKEGKLYAKKECNEDCNFKELILENHYNTYASAKWTHNGGEMFVALNQKGIPVRGKKTKKEQKTAHFLPMAIT", "notes": "keratinocyte growth factor, soluble mediator secreted by fibroblasts, added exogenously to EO constructs"}}, "key": {"[1]": {"system": "full thickness (FT) intestinal constructs (Caco-2 on CCD-18co or HDFn stromal compartment)", "assay": "Ussing chamber drug permeability, full-thickness (FT) intestinal constructs", "assay_type": "in vitro ADME, human"}, "[2]": {"system": "epithelial-only (EO) Caco-2 monolayer constructs", "assay": "Ussing chamber drug permeability, epithelial-only (EO) constructs", "assay_type": "in vitro ADME, human"}, "Caco-2 monolayers": {"system": "Caco-2 monolayers", "conditions": "hydrophilic drugs; in words; ref [14]; cited from earlier work"}, "[3]": {"conditions": "hydrophilic drugs; in words; ref [14]; cited from earlier work"}, "Aminopeptidase": {"system": "Aminopeptidase", "assay": "Aminopeptidase activity assay of KGF-supplemented EO constructs", "assay_type": "cell-based, human", "conditions": "with increasing KGF concentration (0.5–25 ng.mL−1)", "protocol": "(§1) For conditioned medium studies, Caco-2 monolayers were established as above, but after 48 h, the medium was replenished with a 1:1 mix of fresh culture medium and conditioned medium obtained from 80% confluent fibroblast cultures (HDFn or CCD-18co). The conditioned medium was centrifuged to remove cellular debris and sterile filtered before addition to EO cultures. Similarly, KGF-supplemented cultures were seeded in standard conditions and supplemented with a range of concentrations (0.5–25 ng·mL^−1) of KGF following the establishment of cultures for 48 h. Both conditioned and KGF-supplemented media were replenished at each media change: every two days.\nAminopeptidase activity was quantified through the catalyzation of the cleavage of L-slsninr-4-nitroanilide hydrochloride into the breakdown product 4-nitranline. This was achieved through the addition of 0.5 mL of prewarmed 1.5 mM L-analine-4-nitiroanilide hydrochloride solution (Sigma-Aldrich, St. Louis, […], USA) to the apical compartment of bioengineered tissue constructs (both EO and FT). The constructs were incubated for 1 h at 37 °C at 100 rpm using an orbital shaker. Following incubation, 100 μL of the cleavage product-containing solution was sampled from each construct and the absorbance was quantified at 405 nm using a BioTek™ ELx800 (Winooski, VT, USA) plate reader. Enzyme activity was expressed as a function of tissue area."}, "[4]": {"system": "epithelial-only (EO) Caco-2 monolayer constructs", "assay": "qPCR gene expression in KGF-supplemented EO constructs", "assay_type": "cell-based, human", "conditions": "with increasing KGF concentration", "protocol": "as §1\nEO tissue constructs were lysed in RLT buffer (Qiagen, Manchester, UK) and homogenized through repeated aspiration with a 20-gauge needle. […] The mRNA was suspended in molecular-grade water and stored at −80 °C prior to analysis. mRNA abundance was quantified using a Nanodrop Spectrophotometer […] and 200 ng was reverse-transcribed using the GoScript™ Reverse Transcriptase kit (Promega, Hampshire, UK), as per the manufacturer’s instructions. […] Data were analyzed through normalization to the housekeeping reference genes (GAPDH) using the ΔΔCt method and the fold change was averaged after this normalization."}, "[5]": {"system": "epithelial-only (EO) Caco-2 monolayer constructs", "assay": "Transepithelial electrical resistance (TEER) of KGF-supplemented EO constructs", "assay_type": "cell-based, human", "conditions": "with increasing KGF concentration (0.5–25 ng.mL−1)"}, "MDR1": {"biological_target": "MDR1 (Homo sapiens, UniProt P08183)", "sequence (P08183 whole entry)": "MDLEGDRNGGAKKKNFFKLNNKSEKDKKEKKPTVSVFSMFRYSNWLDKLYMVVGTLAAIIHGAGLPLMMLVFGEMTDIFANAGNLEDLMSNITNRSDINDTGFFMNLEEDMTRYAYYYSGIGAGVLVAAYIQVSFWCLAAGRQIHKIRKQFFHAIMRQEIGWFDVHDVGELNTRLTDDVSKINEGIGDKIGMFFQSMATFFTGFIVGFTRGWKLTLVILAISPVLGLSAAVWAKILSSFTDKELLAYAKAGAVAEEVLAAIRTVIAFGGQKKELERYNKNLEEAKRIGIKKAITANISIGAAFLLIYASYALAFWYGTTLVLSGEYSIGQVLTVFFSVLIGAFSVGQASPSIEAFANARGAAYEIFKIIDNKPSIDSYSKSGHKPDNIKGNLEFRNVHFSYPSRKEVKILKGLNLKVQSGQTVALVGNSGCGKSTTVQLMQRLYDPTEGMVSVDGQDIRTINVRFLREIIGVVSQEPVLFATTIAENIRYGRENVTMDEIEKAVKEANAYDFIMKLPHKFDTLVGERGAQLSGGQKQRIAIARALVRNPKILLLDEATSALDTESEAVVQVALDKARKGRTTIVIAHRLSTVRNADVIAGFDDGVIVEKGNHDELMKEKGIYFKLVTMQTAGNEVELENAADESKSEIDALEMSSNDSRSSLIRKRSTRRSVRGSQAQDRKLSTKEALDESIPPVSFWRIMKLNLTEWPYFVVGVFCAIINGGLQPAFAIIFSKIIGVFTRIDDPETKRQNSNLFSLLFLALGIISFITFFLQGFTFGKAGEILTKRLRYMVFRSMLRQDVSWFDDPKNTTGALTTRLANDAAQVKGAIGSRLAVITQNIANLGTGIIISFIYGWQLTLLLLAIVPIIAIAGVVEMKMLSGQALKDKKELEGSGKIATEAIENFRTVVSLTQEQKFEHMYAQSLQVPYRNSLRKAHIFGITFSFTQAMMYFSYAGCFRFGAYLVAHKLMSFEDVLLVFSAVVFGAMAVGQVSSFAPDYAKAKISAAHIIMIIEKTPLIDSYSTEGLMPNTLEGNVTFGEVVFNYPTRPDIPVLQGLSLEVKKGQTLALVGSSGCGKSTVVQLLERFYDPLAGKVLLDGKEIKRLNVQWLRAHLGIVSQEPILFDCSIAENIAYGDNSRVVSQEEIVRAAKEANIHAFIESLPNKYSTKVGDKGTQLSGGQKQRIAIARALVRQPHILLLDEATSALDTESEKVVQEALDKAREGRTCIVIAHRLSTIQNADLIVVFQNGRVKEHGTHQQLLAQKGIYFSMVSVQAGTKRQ", "assay": "MDR1-mediated Rhodamine 123 transport in EO constructs (Ussing chamber)", "conditions": "EO constructs supplemented with KGF 0.5–25 ng.mL−1, absence of verapamil"}, "villin": {"system": "villin", "assay": "Immunofluorescence of villin in KGF-supplemented EO constructs", "assay_type": "cell-based, human", "conditions": "with KGF concentration up to 5–25 ng.mL−1", "protocol": "as §1\nWax sections were prepared for staining by de-paraffinization in Histo-Clear followed by rehydration from 100% ethanol to PBS. Antigen retrieval was performed in citrate buffer (pH 6, Sigma-Aldrich) at 95 °C for 20 min. Alternatively, EO constructs were prepared through fixation in a 1:1 ice-cold solution of methanol (Sigma-Aldrich) and acetone (Sigma-Aldrich) for 10 min at −20 °C. From this point onwards whole EO constructs and mounted tissue sections were stained in the same manner.\nThe samples were blocked for 1 h at room temperature in a solution consisting of 10% normal goat serum ([…], Sigma-Aldrich) and 0.1% […] (Sigma-Aldrich) in PBS. […]"}, "[6]": {"conditions": "FT constructs on intestinal and dermal fibroblast foundation compared with Caco-2 monolayer EO, 100 μM"}}}
{"molecule": "COC(=O)c1ccccc1-c1c2ccc(=N)cc-2oc2cc(N)ccc12", "note": "[Rhodamine 123]", "values": [{"measurement": "apparent permeability (Papp), basal-apical", "setting": "[1]; FT constructs on intestinal fibroblast foundation compared with dermal fibroblast counterpart, absence of verapamil, 5 μM", "result": "significantly increased"}, {"measurement": "apparent permeability (Papp), apical-basal", "setting": "[1]; FT constructs on intestinal vs dermal fibroblast foundation, regardless of verapamil, 5 μM", "result": "no significant difference"}, {"measurement": "apparent permeability (Papp), basal-apical", "setting": "[2]; EO constructs in dermal fibroblast conditioned medium vs control, 5 μM, 120 min", "result": "enhanced"}, {"measurement": "apparent permeability (Papp), apical-basal", "setting": "[2]; EO constructs in medium conditioned by intestinal and dermal fibroblasts vs control medium, 5 μM, 120 min", "result": "increased"}]}
{"molecule": "CC1(C)S[C@@H]2[C@H](NC(=O)[C@H](N)c3ccc(O)cc3)C(=O)N2[C@H]1C(=O)O", "note": "[amoxicillin]", "values": [{"measurement": "Caco-2 permeability in vitro", "setting": "Caco-2 monolayers", "result": "low"}, {"measurement": "absorption in vivo", "setting": "[3]", "result": "high"}]}
{"molecule": "CC1=C(C(=O)O)N2C(=O)[C@@H](NC(=O)[C@H](N)c3ccc(O)cc3)[C@H]2SC1", "note": "[cefadroxil]", "values": [{"measurement": "Caco-2 permeability in vitro", "setting": "Caco-2 monolayers", "result": "low"}, {"measurement": "absorption in vivo", "setting": "[3]", "result": "high"}]}
{"molecule": "N[C@@H](C(=O)N[C@@H]1C(=O)N2C(C(=O)O)=C(Cl)CC[C@H]12)c1ccccc1", "note": "[loracarbef]", "values": [{"measurement": "Caco-2 permeability in vitro", "setting": "Caco-2 monolayers", "result": "low"}, {"measurement": "absorption in vivo", "setting": "[3]", "result": "high"}]}
{"molecule": "CN(Cc1cnc2nc(N)nc(N)c2n1)c1ccc(C(=O)N[C@@H](CCC(=O)O)C(=O)O)cc1", "note": "[methotrexate]", "values": [{"measurement": "Papp, apical-basal transport (RFC1 and PCFT)", "setting": "[1]; FT co-culture constructs only, to a greater degree with dermal fibroblasts, 10 μM", "result": "increased"}, {"measurement": "Papp, basal-apical transport (BCRP-mediated)", "setting": "[1]; FT constructs with dermal fibroblast-based stromal foundation, 10 μM", "result": "increased to the greatest extent"}, {"measurement": "Papp, basal-apical transport (BCRP-mediated)", "setting": "[2]; EO constructs in intestinal fibroblast conditioned medium, 10 μM", "result": "modestly enhanced"}]}
{"molecule": "CC(C)C[C@H](CN)CC(=O)O", "note": "[pregabalin]", "values": [{"measurement": "Caco-2 permeability in vitro", "setting": "Caco-2 monolayers", "result": "low"}, {"measurement": "absorption in vivo", "setting": "[3]", "result": "high"}]}
{"molecule": "Cc1cn([C@H]2C[C@H](N=[N+]=[N-])[C@@H](CO)O2)c(=O)[nH]c1=O", "note": "[zidovudine]", "values": [{"measurement": "Caco-2 permeability in vitro", "setting": "Caco-2 monolayers", "result": "low"}, {"measurement": "absorption in vivo", "setting": "[3]", "result": "high"}]}
{"molecule": "Lucifer yellow", "values": [{"measurement": "permeability (Papp), apical-basal", "setting": "[1]; [6]", "result": "significantly increased"}, {"measurement": "permeability (Papp), basal-apical", "setting": "[1]; [6]", "result": "significantly increased"}, {"measurement": "permeability (Papp), basal-apical", "setting": "[2]; EO constructs in intestinal fibroblast-conditioned medium vs control, not significant, 100 μM", "result": "slight increase"}]}
{"molecule": "B1", "values": [{"measurement": "aminopeptidase activity", "setting": "Aminopeptidase", "result": "increased"}, {"measurement": "occludin gene expression (qPCR)", "setting": "[4]", "result": "decreased"}, {"measurement": "villin gene expression (qPCR)", "setting": "[4]", "result": "increased"}, {"measurement": "TEER", "setting": "[5]", "result": "decreased"}, {"measurement": "effect on basal-apical transport of Rhodamine 123", "setting": "MDR1", "result": "increased"}, {"measurement": "immunofluorescent detection of villin", "setting": "villin", "result": "increases"}]}
